# The source made the active and inactive calls. The rule behind the calls is not given here.
# What was measured:
# [1] = Inhibition of trypsin at 45.5 ug/mL preincubated for 5 mins before addition of substrate measured after 30 mins
# [2] = Inhibition of trypsin preincubated for 5 mins before addition of substrate measured after 30 mins
# [3] = Inhibition of chymotrypsin at 45.5 ug/mL preincubated for 5 mins before addition of substrate measured after 30 mins
inhibition [1] [%],IC50 [2] [µg/mL],Activity [3],Structure (SMILES)
15,,,CC(C)C[C@@H](NC(=O)[C@@H](O)Cc1ccc(O)cc1)C(=O)N1[C@@H]2C[C@H](O)CC[C@@H]2C[C@H]1C(N)=O
,4.2,inactive,CC[C@H](C)[C@@H]1NC(=O)[C@H](Cc2ccc(O)cc2)N(C)C(=O)[C@H](Cc2ccccc2)N2C(=O)[C@H](CC[C@H]2O)NC(=O)[C@H](CCCNC(=N)N)NC(=O)[C@@H](NC(=O)[C@H](CC(=O)O)NC(C)=O)[C@@H](C)OC1=O [MICROPEPTIN E1964]
,3.8,inactive,CCCC(=O)N[C@@H](CC(=O)O)C(=O)N[C@@H]1C(=O)N[C@@H](CCCNC(=N)N)C(=O)N[C@H]2CC[C@@H](O)N(C2=O)[C@@H](Cc2ccccc2)C(=O)N(C)[C@@H](Cc2ccc(O)cc2)C(=O)N[C@@H]([C@@H](C)CC)C(=O)O[C@@H]1C [MICROPEPTIN EI992]
